Active and inactive are the calls of the source. Cut-off read from the data, not from the text of the source: actives have a measured IC50 and inactives only a lower limit.
Tests used:
Type in all cases: functional
[1] = biological target: T1, Sentrin-specific protease 8 (Homo sapiens, UniProt Q96LD8);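 note: luminescence read-out of SENP8 inhibition, dose-response confirmation following an ultra-high-throughput screen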
T1 sequence (Q96LD8 whole entry): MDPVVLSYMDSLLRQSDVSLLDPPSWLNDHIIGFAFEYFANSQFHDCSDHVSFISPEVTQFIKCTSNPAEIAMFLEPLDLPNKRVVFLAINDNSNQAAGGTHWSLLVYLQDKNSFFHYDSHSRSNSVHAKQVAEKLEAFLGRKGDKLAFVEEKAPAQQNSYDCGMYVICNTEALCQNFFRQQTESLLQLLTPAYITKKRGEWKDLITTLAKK

[2] = biological target: T2, Sentrin-specific protease 7 (Homo sapiens, UniProt Q9BQF6);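 note: Luminescence-based dose-response confirmation of ultra-high-throughput screening hits, measuring inhibition of SENP7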
T2 sequence (Q9BQF6 whole entry): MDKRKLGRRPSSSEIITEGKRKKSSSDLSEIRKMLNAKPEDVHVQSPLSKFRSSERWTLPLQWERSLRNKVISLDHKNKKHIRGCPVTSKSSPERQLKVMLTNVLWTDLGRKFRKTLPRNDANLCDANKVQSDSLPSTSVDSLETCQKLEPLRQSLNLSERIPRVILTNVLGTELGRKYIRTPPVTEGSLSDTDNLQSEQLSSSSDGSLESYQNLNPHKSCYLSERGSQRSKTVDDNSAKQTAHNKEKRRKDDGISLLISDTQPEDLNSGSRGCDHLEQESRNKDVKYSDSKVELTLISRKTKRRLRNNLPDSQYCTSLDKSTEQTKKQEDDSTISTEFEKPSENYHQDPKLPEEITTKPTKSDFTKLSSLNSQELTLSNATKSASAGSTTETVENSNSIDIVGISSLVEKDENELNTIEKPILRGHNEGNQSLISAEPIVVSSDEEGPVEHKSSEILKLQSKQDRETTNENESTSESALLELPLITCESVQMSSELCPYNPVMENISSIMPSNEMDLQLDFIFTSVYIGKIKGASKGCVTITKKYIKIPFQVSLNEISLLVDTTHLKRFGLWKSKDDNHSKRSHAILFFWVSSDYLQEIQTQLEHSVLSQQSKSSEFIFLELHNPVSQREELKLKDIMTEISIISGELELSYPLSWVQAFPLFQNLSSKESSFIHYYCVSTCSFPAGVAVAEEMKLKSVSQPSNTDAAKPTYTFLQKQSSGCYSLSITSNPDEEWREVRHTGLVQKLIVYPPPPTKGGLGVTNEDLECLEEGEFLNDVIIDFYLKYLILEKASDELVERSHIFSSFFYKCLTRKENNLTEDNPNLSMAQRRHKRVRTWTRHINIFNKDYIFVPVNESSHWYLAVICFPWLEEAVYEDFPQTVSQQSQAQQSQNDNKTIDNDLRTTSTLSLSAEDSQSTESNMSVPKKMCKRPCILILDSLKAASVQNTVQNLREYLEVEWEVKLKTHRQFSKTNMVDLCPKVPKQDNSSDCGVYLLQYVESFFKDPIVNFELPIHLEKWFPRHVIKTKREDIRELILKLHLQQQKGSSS

[3] = biological target: T3, Sentrin-specific protease 6 (Homo sapiens, UniProt Q9GZR1);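 note: Luminescence-based dose-response confirmatory assay of SENP6 inhibition, following up an ultra-high-throughput screen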
T3 sequence (Q9GZR1 whole entry): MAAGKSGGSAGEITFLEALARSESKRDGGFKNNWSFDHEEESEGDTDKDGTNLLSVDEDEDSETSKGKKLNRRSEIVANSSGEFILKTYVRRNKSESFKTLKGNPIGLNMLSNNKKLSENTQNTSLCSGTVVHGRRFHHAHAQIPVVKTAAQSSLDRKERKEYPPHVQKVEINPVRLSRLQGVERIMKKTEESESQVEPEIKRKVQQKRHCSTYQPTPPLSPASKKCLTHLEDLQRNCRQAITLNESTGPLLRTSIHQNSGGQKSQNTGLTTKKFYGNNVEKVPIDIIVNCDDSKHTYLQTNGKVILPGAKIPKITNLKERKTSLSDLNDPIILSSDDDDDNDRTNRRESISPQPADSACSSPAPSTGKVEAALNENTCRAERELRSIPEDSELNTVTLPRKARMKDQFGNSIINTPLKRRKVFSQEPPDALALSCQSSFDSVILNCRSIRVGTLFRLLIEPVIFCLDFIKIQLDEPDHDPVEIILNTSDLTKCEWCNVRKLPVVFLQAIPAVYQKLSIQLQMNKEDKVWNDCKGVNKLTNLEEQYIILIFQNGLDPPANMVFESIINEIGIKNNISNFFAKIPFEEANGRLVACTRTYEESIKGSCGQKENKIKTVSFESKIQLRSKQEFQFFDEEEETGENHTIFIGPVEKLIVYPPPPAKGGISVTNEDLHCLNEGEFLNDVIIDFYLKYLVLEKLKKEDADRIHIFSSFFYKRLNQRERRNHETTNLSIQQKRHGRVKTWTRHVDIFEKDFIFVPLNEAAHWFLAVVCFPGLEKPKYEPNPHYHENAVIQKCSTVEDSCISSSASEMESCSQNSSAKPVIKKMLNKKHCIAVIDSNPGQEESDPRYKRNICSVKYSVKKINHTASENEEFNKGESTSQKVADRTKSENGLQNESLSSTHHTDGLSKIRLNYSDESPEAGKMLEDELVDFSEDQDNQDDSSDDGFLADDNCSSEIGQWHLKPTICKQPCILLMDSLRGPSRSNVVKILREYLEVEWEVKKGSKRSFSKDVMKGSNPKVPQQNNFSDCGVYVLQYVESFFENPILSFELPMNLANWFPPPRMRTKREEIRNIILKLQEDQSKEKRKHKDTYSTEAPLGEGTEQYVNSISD

| SMILES | IC50 [1] | IC50 [2] | IC50 [3] |
| --- | --- | --- | --- |
| CCOC(=O)c1c(NS(=O)(=O)c2ccccc2)n(CCCOC)c2nc3ccccc3nc12 | 1.91 µM (active) | 1.02 µM (active) | 0.596 µM (active) |
| O=C(COC(=O)c1ccc([N+](=O)[O-])s1)NCCc1ccccc1 | 4.74 µM (active) | 7.56 µM (active) | 4.79 µM (active) |

Reference: ChEMBL document CHEMBL1201862, “PubChem BioAssay data set” (2004)
